Laboratory results taken from patent US8771973B2, “Methods for treating bleeding disorders using sulfated polysaccharides” (Baxter Healthcare S.A., priority 2004, dated 2014).

Tests used:
Hem-A plasma [1] = assay: dPT assay, anti-coagulant activity of NASPs in Hem-A plasma; type: biochemical, human; conditions: for clotting time, dPT: Hem-A plasma without NASP 41.5 seconds; for concentration for 50% prolongation of clotting time, fold higher than heparin: dPT, Hem-A plasma
Description: (§1) The dPT assay used was a modified standard clinical PT assay (Nordfang et al. (1991) Thromb Haemost 66:464-467; Welsch et al. (1991) Thrombosis Research 64: 213-222). SIMPLASTIN EXCEL thromboplastin reagent (Organon Teknika) was reconstituted with the manufacturer's diluent and further diluted 1:100 in 0.9% saline. The thromboplastin reagent, 25 mM CaCl2, and plasma samples were pre-warmed to 37° C. before initiating the assay. 100 μl of thawed plasma was aliquoted into microcentrifuge tubes. […] 100 μl of the diluted thromboplastin reagent and 100 μl of 25 mM CaCl2 were added to fibrin cups (Fisher) prewarmed to 37° C. 100 μl of plasma (normal or hemophilic) containing the test agent or saline control was added to the fibrin cups containing the thromboplastin reagent and CaCl2 to initiate clotting. The time for plasma clotting was measured with a BBL FIBROSYSTEM fibrometer.
Test compounds were diluted to 100 μM, 10 μM, 2 μM and 200 nM. For each test compound, 12.5 μl of a diluted solution containing the test compound was added to 237.5 μl of Hem-A plasma and incubated at room temperature. 100 μl of plasma containing the test compound was removed for dPT assays of plasma clotting time as described in Example 2.

[2] = system: Hem-A plasma containing 1.25% FACT plasma; assay: aPTT assay, NASPs in 1.25% FACT diluted in Hem-A plasma; type: biochemical, human; conditions: for concentration producing approximately 50% prolongation in clotting time, fold higher than for heparin: APTT, Hem-A plasma
Description: Activated Partial Thromboplastin Time (aPTT) Assay The aPTT assay was performed as described previously with modifications (PDR Staff Physicians' Desk Reference. 2004, Anderson Lo, Barrowcliffe, T. W., Holmer, E., Johnson, E. A., Sims, G. E. C. Thromb. Res. 1976; 9:575-580). 25 mM CaCl2 and fibrin cups (Fisher) were pre-warmed to 37° C. 0.1 ml of thawed human plasma (normal or hemophilic) was added to warmed test tubes. 5 μl of saline (e.g. Sigma) or 5 μl of test agent (e.g., NASP) dissolved in saline was incubated with 95 μl of plasma for 30 minutes at room temperature. APTT reagent (e.g. Organon Teknika) was reconstituted in 3 ml distilled water and 0.1 ml of the reconstituted solution containing the APTT reagent was added to each test tube. 0.2 ml of plasma containing the test agent or saline control and aPTT reagent were transferred from test tubes to pre-warmed fibrin cups and incubated for 2-3 minutes. 0.1 ml of pre-warmed 25 mM CaCl2 was added to initiate clotting, and the time for plasma clotting was measured with a BBL FIBROSYSTEM fibrometer.
The effect of NASPs on the clotting time of plasma was determined as follows: 5 μl of a NASP was added to 95 μl of 1.25% FACT diluted in human Hem-A plasma and incubated at room temperature for 30 minutes. aPTT assays were performed to determine plasma clotting time as described in Example 1.

TFPI [3] = biological target: T1, TFPI (Homo sapiens, UniProt P10646); assay: dPT assay, inhibition of TFPI activity in Hem-A plasma, TFPI preincubated with NASP; type: biochemical; conditions: Hem-A + TFPI, preincubation, plasma alone 44, + TFPI 151 seconds
T1 construct: purchased American Diagnostica (Stamford, Conn.)
T1 sequence (P10646 29-304): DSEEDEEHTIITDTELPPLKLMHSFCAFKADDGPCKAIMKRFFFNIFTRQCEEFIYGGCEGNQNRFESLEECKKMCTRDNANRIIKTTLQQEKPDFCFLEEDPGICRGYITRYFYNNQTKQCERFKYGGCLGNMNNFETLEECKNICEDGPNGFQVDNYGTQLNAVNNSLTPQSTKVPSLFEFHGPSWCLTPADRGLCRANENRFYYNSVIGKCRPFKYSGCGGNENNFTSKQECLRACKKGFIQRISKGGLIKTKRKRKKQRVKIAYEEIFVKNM
Description: as §1
(§2) Inhibition of TFPI activity by NASPs was assessed in dPT clotting assays with normal or hemophilic plasma and added recombinant TFPI. Diluted recombinant TFPI was preincubated with NASPs for 5 minutes at room temperature before plasma was added. After addition of plasma, the mixture was incubated for an additional 25 minutes followed by dPT initiation.

TFPI [4] = biological target: T1, TFPI; assay: dPT assay, inhibition of TFPI activity in Hem-B plasma, TFPI preincubated with NASP; type: biochemical; conditions: Hem-B + TFPI, plasma alone 46, + TFPI 101 seconds
Description: as §1, §2
The acceleration of plasma clotting by the NASPs in the presence of TFPI was also tested in Hem-B and normal plasma.

Hem-A plasma [5] = assay: dPT assay, Hem-A plasma in absence of exogenous TFPI; type: biochemical, human; conditions: Hem-A, no exogenous TFPI, no NASP 69 seconds
Description: as §1
The ability of NASPs to accelerate clotting of factor-deficient plasma in the absence of TFPI supplementation was also tested in dPT assays. A procoagulant response, if observed, may be related to neutralization of endogenous TFPI activity, which is present in human plasma at approximately 100 ng/ml (Nordfang et al., supra), largely associated with lipoprotein or platelets (Broze et al. (1992) Semin. Hematol. 29:159-169; Broze et al. (2003) J. Thromb. Haemost. 1:1671-1675).
The ability of NASPs to accelerate clotting of Hem-A plasma in the absence of exogenous TFPI was tested. Fucoidan or PPS were titrated into Hem A plasma and dPT assays were performed. Additionally, the dose-response to factor VIIa was analyzed as a positive control for amplifying extrinsic pathway activation.

[6] = system: Factor VII-deficient plasma; assay: dPT assay, Factor VII-deficient plasma in absence of exogenous TFPI; type: biochemical, human; conditions: FVII-deficient plasma, no NASP + 0.1 nM FVIIa 173 seconds
Description: as §1
Regulation of clotting in Factor VII-deficient plasma was also evaluated in dPT assays. […] Addition of FVIIa to approximately 0.1 nM restored the clotting time to about 150 seconds (data not shown). Such a variation in clotting time shown in the dPT assay mimics some forms of human factor VII-deficiency. Titration of fucoidan and PPS into FVII-deficient plasma accelerated clotting times.

Substance	clotting time, dPT (Hem-A plasma [1]; 10 nM)	clotting time, dPT (Hem-A plasma [1]; 100 nM)	clotting time, dPT (Hem-A plasma [1]; 500 nM)	concentration for 50% prolongation of clotting time, fold higher than heparin (Hem-A plasma [1])	clotting time, aPTT ([2]; 0.8 nM)	clotting time, aPTT ([2]; 4 nM)	clotting time, aPTT ([2]; 20 nM)	clotting time, aPTT ([2]; 100 nM)	concentration producing approximately 50% prolongation in clotting time, fold higher than for heparin [2]	clotting time, dPT (TFPI [3]; 0.16 nM)	clotting time, dPT (TFPI [3]; 0.8 nM)	clotting time, dPT (TFPI [3]; 4 nM)	clotting time, dPT (TFPI [3]; 20 nM)	clotting time, dPT (TFPI [3]; 100 nM)	clotting time, dPT (TFPI [3]; 500 nM)	clotting time, dPT (TFPI [4]; 0.16 nM)	clotting time, dPT (TFPI [4]; 0.8 nM)	clotting time, dPT (TFPI [4]; 4 nM)	clotting time, dPT (TFPI [4]; 20 nM)	clotting time, dPT (TFPI [4]; 100 nM)	further results
Pentosan Polysulphate Sodium [PPS]	39 s	37 s	40 s	~100 fold	70 s	71 s	72 s	80 s	100 fold	158 s	111 s	91 s	55 s	57 s	74 s	106 s	90 s	82 s	65 s	52 s	clotting time, dPT (Hem-A plasma [1]; 5000 nM): 70 s; clotting time, aPTT ([2]; 500 nM): 113 s; clotting time, dPT (TFPI [4]; 500 nM): 56 s; clotting time, dPT (Hem-A plasma [5]; 0.16 nM): 69 s; clotting time, dPT (Hem-A plasma [5]; 0.8 nM): 68 s; clotting time, dPT (Hem-A plasma [5]; 4 nM): 66 s; clotting time, dPT (Hem-A plasma [5]; 20 nM): 62 s; clotting time, dPT (Hem-A plasma [5]; 100 nM): 60 s; clotting time, dPT ([6]; 0.8 nM): 198 s; clotting time, dPT ([6]; 4 nM): 181 s; clotting time, dPT ([6]; 20 nM): 159 s; clotting time, dPT ([6]; 100 nM): 142 s; clotting time, dPT ([6]; 500 nM): 113 s
Fucoidan	39 s	38 s	60 s	approximately 10 fold	70 s	71 s	75 s	119 s	10 fold	130 s	108 s	72 s	54 s	46 s	75 s	108 s	95 s	80 s	54 s	50 s	clotting time, aPTT ([2]; 0.16 nM): 71 s; clotting time, dPT (TFPI [4]; 500 nM): 60 s; clotting time, dPT (Hem-A plasma [5]; 0.16 nM): 70 s; clotting time, dPT (Hem-A plasma [5]; 0.8 nM): 68 s; clotting time, dPT (Hem-A plasma [5]; 4 nM): 63 s; clotting time, dPT (Hem-A plasma [5]; 20 nM): ~55 s; clotting time, dPT (Hem-A plasma [5]; 100 nM): 56 s; clotting time, dPT ([6]; 0.8 nM): 168 s; clotting time, dPT ([6]; 4 nM): 147 s; clotting time, dPT ([6]; 20 nM): 120 s; clotting time, dPT ([6]; 100 nM): 74 s; clotting time, dPT ([6]; 500 nM): 111 s
